The source of these data is patent US20220323408A1, “COMPOSITION USED FOR COMBATING METABOLIC DISEASES AND USES OF COMPOSITION” (Institute of Zoology, Chinese Academy of Sciences, priority 2019, published 2022).

In data set [1] the test system is HFD (high-fat diet)-induced obesity and insulin resistance. Conditions: C57BL/6J mice; cited from earlier work.
A further data set concerns pancreatic beta cells. Conditions: by reducing PGE2-mediated β-cell apoptosis; cited from earlier work.
The subject of data set [2] is diet-induced obesity (DIO) male mice. Kind of data set: Body weight change in diet-induced obesity (DIO) mice, 10 days. In kind it is in vivo. The following applies: 30 mg/kg A alone or 5 mg/kg B alone per day i.p. The method, then: In addition, the control group and the experimental group of the present invention all adopt intraperitoneal injections in the process. The injection volume starts at 4 μl/g of body weight and can be adjusted according to the dose, in which the therapeutic agent A in the experimental group (aspirin (trade name Aspirin) is used in the following examples) is diluted in PBS to a dose between 0.3 mg/kg and 120 mg/kg of body weight, the therapeutic agent B (trimetazidine (trade name Trimetazidine) is used in the following examples) is diluted in PBS to a dose between 0.05 mg/kg and 500 mg/kg of body weight. In the control group, the same amount of the therapeutic agent A or the same amount of the therapeutic agent B alone is usually used, or only the same amount of PBS solvent is used as a blank control. Twenty 6-week-old diet-induced obesity (Jackson Lab's Diet-Induced Obese, DIO) male mice with similar physical status were selected and then divided into four groups, and the number of mice in each group was 5. […] The body weight of each mouse was recorded daily.

Data set [3] in a line: LC-MS analysis of mouse serum 1 hour after administration. In kind it is in vivo. Conditions: mice of control group 1 (30 mg/kg A); serum 1 hour later; LC-MS vs blank control group 3. The protocol: Mice were grouped and administered according to the same method as in Example 8, except that serum samples from each group of mice were subjected to liquid phase mass spectrometry (LC-MS, Waters XBridge C18 column and Xevo G2-XS) analysis 1 hour later, and the most prominent small molecule markers were taken out, as shown in FIG. 51.

For data set [4], the system named is diabetic DIO mice. Kind of data set: Serum indicators of hyperlipidemia, fatty liver and nitrogen metabolism in diabetic DIO mice. In kind it is in vivo. The following applies: 4 weeks, 30 mg/kg A and/or 5 mg/kg B per day, vs blank control group 3. The protocol: Subsequent tests were performed on each group of mice that had completed the treatment of Example 8. Examples 9 and 10 detected two indicators related to obesity and hyperlipidemia: total cholesterol and LDL-cholesterol; Example 11 detected alanine aminotransferase (ALT), an indicator related to fatty liver disease; and Examples 12 and 13 detected two indicators related to nitrogen metabolism: albumin/globulin ratio and total protein.

For data set [5], the system named is primary human skeletal muscle cells induced insulin resistance. Kind of data set: Western blot of primary human skeletal muscle cells with induced insulin resistance, 7 days. It counts as cell-based. Conditions: palmitic acid + TNFα 7 days, 100 mg/L A and/or 2 mg/L B on day 4, vs control group 3; for insulin sensitivity indicator phospho-Akt / insulin sensitivity indicator phospho-S6 / myosin heavy chain (MHC): single agents comparably weak. The method, then:
In vitro human primary skeletal muscle cells were used in the experiment, the cells were divided into six groups: for control group 1, the same amount of DMSO solvent was administered for 7 days as a blank control; for control group 2, the same amount of bovine serum albumin (BSA) was administered for 7 days as a fat solvent control; for control group 3, palmitic acid (Pal) and TNFα were administered for 7 days as a high-fat and inflammation-induced insulin resistance control; for control group 4, palmitic acid (Pal) and TNFα were administered for 7 days and 100 mg/L of therapeutic agent A was administered on day 4; for control group 5, palmitic acid (Pal) and TNFα were administered for 7 days and 2 mg/L of therapeutic agent B was administered on day 4; for the experimental group, palmitic acid (Pal) and TNFα were administered for 7 days and 100 mg/L of therapeutic agent A and 2 mg/L of therapeutic agent B were administered on day 4; afterwards, protein Western blot analysis was performed on each group of samples, as shown in FIG. 47.

In data set [6] the test system is p38 and AMPK signaling pathways. Kind of data set: Western blot of in vitro human primary skeletal muscle cells over 24 hours. It counts as cell-based. The following applies: 100 mg/L A and/or 2 mg/L B, single agents vs DMSO control, weaker or slower than A+B. The method, then:
In vitro human primary skeletal muscle cells were used in the test, the cells were divided into four groups, and each group had six time points. For the experimental group, 100 mg/L of therapeutic agent A and 2 mg/L of therapeutic agent B were administered; for the control group 1, 100 mg/L of therapeutic agent A was administered; for the control group 2, 2 mg/L of therapeutic agent B was administered; and for the control group 3, the same amount of DMSO solvent was used as a blank control. The experiment was conducted 24 hours in total.
(In western blotting, separated proteins are transferred to a membrane and probed.)

The subject of data set [7] is diabetic DIO mice. Kind of data set: Body weight change in diabetic DIO mice, 4 weeks. In kind it is in vivo. The following applies: 30 mg/kg A alone or 5 mg/kg B alone per day.
The mark [8] stands for this setting: long-term administration (3 to 24 hours).
Where [9] appears, read: short-term administration (within 60 minutes).

On to `COc1ccc2c(c1)c(CC(=O)O)c(C)n2C(=O)c1ccc(Cl)cc1` [Indomethacin], for which, in data set [1], the “HFD (high-fat diet)-induced obesity” value was “prevent” and the HFD-induced insulin resistance entry is reported as “prevent”.

For `CS(=O)(=O)Nc1ccc([N+](=O)[O-])cc1OC1CCCCC1` [NS-398], the β-cell dysfunction entry in the data set with pancreatic beta cells is listed as “reverse”.

With `CC(=O)Oc1ccccc1C(=O)O` [therapeutic agent A, aspirin], the “effect on the body weight” value in data set [2] was “almost no significant effect”. In addition, in data set [3], the “formation of salicylate derivatives in serum” value is listed as “can effectively form a variety of salicylate derivatives in serum”. For the same molecule, in the data set with diabetic DIO mice [4], the LDL-cholesterol entry was “neither therapeutic agent A in control group 1 nor therapeutic agent B in control group 2 used alone was able to achieve significant therapeutic or restorative effects”, the “alanine aminotransferase (ALT)” value is reported as “neither therapeutic agent A in control group 1 nor therapeutic agent B in control group 2 used alone was able to achieve significant therapeutic or restorative effects”, the albumin/globulin ratio result is recorded as “neither therapeutic agent A in control group 1 nor therapeutic agent B in control group 2 used alone was able to achieve significant therapeutic or restorative effects” and the total cholesterol entry was “neither therapeutic agent A in control group 1 nor therapeutic agent B in control group 2 used alone was able to achieve significant therapeutic or restorative effects”. In the data set on diabetic DIO mice [4], the total protein entry is “neither therapeutic agent A in control group 1 nor therapeutic agent B in control group 2 used alone was able to achieve significant therapeutic or restorative effects”. Besides, in data set [5], the “cellular senescence indicator H3K9me3” value is given as “can down-regulate”, the “insulin sensitivity indicator phospho-Akt” value is “can also up-regulate”, the “insulin sensitivity indicator phospho-S6” value is “can also up-regulate” and the “myosin heavy chain (MHC)” value is “can also up-regulate”. Besides, in data set [6] (setting [8]), the PGC1a entry was “could also down-regulate”, the phospho-ACC result was “could also down-regulate” and the phospho-p38 entry is “could also down-regulate”. In data set [6] (setting [9]), the PGC1a result is on record as “could also up-regulate”, the phospho-ACC result is “could also up-regulate”, the phospho-AMPK result is on record as “could also up-regulate” and the phospho-p38 entry is “could also up-regulate”. Besides, the “effect on the body weight” value in the data set with diabetic DIO mice [7] is recorded as “almost no obvious effect”.

With `COc1ccc(CN2CCNCC2)c(OC)c1OC` [therapeutic agent B, trimetazidine], the “effect on the body weight” value in data set [2] is on record as “almost no significant effect”. Moreover, in the data set with diabetic DIO mice [4], the LDL-cholesterol entry is reported as “neither therapeutic agent A in control group 1 nor therapeutic agent B in control group 2 used alone was able to achieve significant therapeutic or restorative effects”, the “alanine aminotransferase (ALT)” value is reported as “neither therapeutic agent A in control group 1 nor therapeutic agent B in control group 2 used alone was able to achieve significant therapeutic or restorative effects”, the albumin/globulin ratio result is recorded as “neither therapeutic agent A in control group 1 nor therapeutic agent B in control group 2 used alone was able to achieve significant therapeutic or restorative effects” and the total cholesterol entry was “neither therapeutic agent A in control group 1 nor therapeutic agent B in control group 2 used alone was able to achieve significant therapeutic or restorative effects”. In addition, in the data set with diabetic DIO mice [4], the total protein result is recorded as “neither therapeutic agent A in control group 1 nor therapeutic agent B in control group 2 used alone was able to achieve significant therapeutic or restorative effects”. For the same molecule, in data set [5], the “cellular senescence indicator H3K9me3” value was “cannot achieve the same effect”, the “insulin sensitivity indicator phospho-Akt” value is on record as “can also up-regulate”, the “insulin sensitivity indicator phospho-S6” value is “can also up-regulate” and the “myosin heavy chain (MHC)” value is “can also up-regulate”. Also, in data set [6] (setting [8]), the PGC1a entry is “could also down-regulate”, the phospho-ACC result is recorded as “could also down-regulate” and the phospho-p38 result is “could also down-regulate”. In data set [6] (setting [9]), the PGC1a entry is recorded as “could also up-regulate”, the phospho-ACC result is reported as “could also up-regulate”, the phospho-AMPK entry is “could also up-regulate” and the phospho-p38 result is reported as “could also up-regulate”. In addition, in the data set on diabetic DIO mice [7], the “effect on the body weight” value was “almost no obvious effect”.
